Data from US9550796B2, “Pyrrolopyrrolone derivatives and their use as BET inhibitors” (NOVARTIS AG, priority 2013, dated 2017).

Assays:
K-562 = experiment: Cell growth inhibition assay (CellTiter-Glo), K-562; assay type: cell-based, human; details: K-562 cells, 4 days; for GI50: Homo sapiens, K562, 96 h, half-maximal growth inhibition; for K-562 TGI: total growth inhibition
In short: (§1)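 Cells were exposed 4 days at 37 °C, 5% CO2 to 3-fold serial dilutions starting at 10 μM (0.1% DMSO vehicle). Viability was measured as ATP by CellTiter-Glo luminescence, corrected for background and a day-0 plate. IC50 and TGI were derived by four-parameter fitting.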

BRD4 = BRD4 (Homo sapiens (Human), UniProt O60885); experiment: TR-FRET in-vitro binding assay for BRD4; details: 45 nM His-Brd4(44-477), acetyl-histone H4 (AcK 5, 8, 12, 16) peptide
In short: (§2)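 Eight-point compound dilutions, delivered in 90% DMSO, were tested in a 13.55 μL final reaction. Reactions ran 35 minutes at 30° C before TR-FRET measurement.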

MV-4-11 = experiment: Cell growth inhibition assay (CellTiter-Glo), MV-4-11; assay type: cell-based, human; details: MV-4-11 cells, 4 days; for GI50: Homo sapiens, MV4-11, 96 h, half-maximal growth inhibition; for MV-4-11 TGI: total growth inhibition
In short: as §1

THP-1 = experiment: Cell growth inhibition assay (CellTiter-Glo), THP-1; assay type: cell-based, human; details: THP-1 cells, 4 days; for GI50: Homo sapiens, 96 h, half-maximal growth inhibition; for THP-1 TGI: total growth inhibition
In short: as §1

BRD2 = BRD2 (Homo sapiens (Human), UniProt P25440); experiment: TR-FRET in-vitro binding assay for BRD2; details: 45 nM His-Brd2(60-472), acetyl-histone H4 (AcK 5, 8, 12, 16) peptide
Chain of BRD2 (P25440 60-472): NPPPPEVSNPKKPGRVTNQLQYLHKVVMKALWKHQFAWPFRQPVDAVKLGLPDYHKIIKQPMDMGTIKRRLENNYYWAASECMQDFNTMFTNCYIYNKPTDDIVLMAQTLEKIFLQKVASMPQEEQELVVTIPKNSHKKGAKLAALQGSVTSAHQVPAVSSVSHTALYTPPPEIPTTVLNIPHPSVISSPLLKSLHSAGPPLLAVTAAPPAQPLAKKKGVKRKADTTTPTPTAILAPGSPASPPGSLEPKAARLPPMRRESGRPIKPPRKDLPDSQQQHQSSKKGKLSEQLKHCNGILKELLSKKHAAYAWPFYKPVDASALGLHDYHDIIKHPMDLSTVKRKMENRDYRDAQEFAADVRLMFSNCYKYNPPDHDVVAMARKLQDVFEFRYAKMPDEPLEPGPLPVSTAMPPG
Method: TR-FRET In-Vitro Binding Assays for BRD2, BRD3, and BRD4: All assays were performed in 384-well microtiter plates. […] Liquid handling and incubation steps were done on an Innovadyne Nanodrop Express equipped with a robotic arm (Thermo CatX, Perkin Elmer/Caliper Twister II) and an incubator (Liconic STX40, Thermo Cytomat 2C450). The assay plates were prepared by addition of 50 nl per well of compound solution in 90% DMSO HummingBird nanodispenser (Zinsser Analytic). […] Reactions were incubated at 30° C. for 35 minutes. […] After 35 minutes incubation at 30° C., plates were measured in a Perkin Elmer EnVision multilabel reader. […] The stock solutions were stored at […] if not used immediately. For the test procedure the vials were defrosted and identified by a scanner whereby a working sheet was generated that guided the subsequent working steps. Compound dilutions were made in 96 well plates. This format enabled the assay of maximally […] at 8 concentrations (single points) including 4 reference compounds, if desired (known BET inhibitors from the prior art, for this and other assays of the type disclosed herein). The dilution protocol included the production of “pre-dilution plates”, “master plates” and “assay plates”. Polypropylene 96-well plates were used as pre-dilution plates. […] All dilution steps were done on a HamiltonSTAR robot. […] Identical “assay plates” were then prepared by pipetting 50 nL each of compound dilutions of the “master plates” into 384-well “assay plates” by means of a HummingBird 384-channel dispenser. These plates were used directly for the assay which was performed in a total volume of 13.55 μL.

BRD3 = BRD3 (Homo sapiens (Human), UniProt Q15059); experiment: TR-FRET in-vitro binding assay for BRD3; details: 45 nM His-Brd3(20-477), acetyl-histone H4 (AcK 5, 8, 12, 16) peptide
Chain of BRD3 (Q15059 20-477): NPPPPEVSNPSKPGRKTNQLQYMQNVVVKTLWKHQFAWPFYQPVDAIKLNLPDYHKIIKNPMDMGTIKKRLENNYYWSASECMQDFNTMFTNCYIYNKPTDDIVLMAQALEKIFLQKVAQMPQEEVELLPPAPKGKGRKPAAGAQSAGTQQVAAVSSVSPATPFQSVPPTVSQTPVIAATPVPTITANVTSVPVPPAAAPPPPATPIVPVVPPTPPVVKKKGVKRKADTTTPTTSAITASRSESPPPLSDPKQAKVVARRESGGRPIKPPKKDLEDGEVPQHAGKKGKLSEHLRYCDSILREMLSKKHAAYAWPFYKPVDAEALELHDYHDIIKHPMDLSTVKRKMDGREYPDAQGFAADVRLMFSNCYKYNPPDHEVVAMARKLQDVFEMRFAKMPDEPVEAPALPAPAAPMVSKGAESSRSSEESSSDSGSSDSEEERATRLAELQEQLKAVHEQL
In short: as §2

CREBBP = CREBBP (Homo sapiens (Human), UniProt Q92793); experiment: AlphaScreen in-vitro binding assay for CREBBP; details: 324 nM His-CREBBP (1081-1197), acetyl-histone H4 (AcK 5, 8, 12) peptide
Chain of CREBBP (Q92793 1081-1197): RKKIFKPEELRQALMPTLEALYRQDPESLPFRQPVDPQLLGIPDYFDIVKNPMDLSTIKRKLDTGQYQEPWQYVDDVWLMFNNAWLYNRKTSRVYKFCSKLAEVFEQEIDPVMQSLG
In short: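 IC50 values were derived by non-linear regression of percent inhibition across 8 compound concentrations. Protein was His-tagged CREBBP bromodomain (1081-1197), peptide acetyl-histone H4 (AcK 5, 8, 12), in HEPES pH 7.5 buffer. Read-out was AlphaScreen with Ni-chelate acceptor and streptavidin donor beads, 35 min at 30° C then 60 min at RT.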

| Structure (SMILES) | GI50 (K-562) | K-562 TGI (K-562) | IC50 (BRD4) | GI50 (MV-4-11) | MV-4-11 TGI (MV-4-11) | GI50 (THP-1) | THP-1 TGI (THP-1) | IC50 (BRD2) | IC50 (BRD3) | IC50 (CREBBP) |
| --- | --- | --- | --- | --- | --- | --- | --- | --- | --- | --- |
| COc1ncccc1-c1cc2c([nH]1)C(c1ccc(Cl)cc1)N(c1cc(C)c3nnc(C)n3c1)C2=O (centres unmarked) [Example 27, 6-(4-chlorophenyl)-5-(3,8-dimethyl-[1,2,4]triazolo[4,3-a]pyridin-6-yl)-2-(2-methoxypyridin-3-yl)-5,6-dihydropyrrolo[3,4-b]pyrrol-4(1H)-one] | 108 nM | >10000 nM | 17 nM | 22.5 nM | 37.7 nM | 34.4 nM | 88 nM | 37 nM | 21 nM |  |
| COc1ncc(-c2cc3c(n2C)C(c2ccc(Cl)cc2)N(c2cc(C)c(=O)n(C)c2)C3=O)c(OC)n1 (centres unmarked) [Example 53, 6-(4-chlorophenyl)-2-(2,4-dimethoxypyrimidin-5-yl)-5-(1,5-dimethyl-6-oxo-1,6-dihydropyridin-3-yl)-1-methyl-5,6-dihydropyrrolo[3,4-b]pyrrol-4(1H)-one] |  |  | 40 nM |  |  |  |  | 41 nM | 39 nM |  |
| COc1cccc(C2c3c(ccn3C)C(=O)N2c2cc(C)c(=O)n(C)c2)c1 (centres unmarked) [Example 85, 5-(1,5-dimethyl-6-oxo-1,6-dihydropyridin-3-yl)-6-(3-methoxyphenyl)-1-methyl-5,6-dihydropyrrolo[3,4-b]pyrrol-4(1H)-one] |  |  | 695 nM |  |  |  |  | 740 nM | 560 nM |  |
| COc1cccc(C2c3c(ccn3C)C(=O)N2c2cc(Cl)c(=O)n(C)c2)c1 (centres unmarked) [Example 91, 5-(5-chloro-1-methyl-6-oxo-1,6-dihydropyridin-3-yl)-6-(3-methoxyphenyl)-1-methyl-5,6-dihydropyrrolo[3,4-b]pyrrol-4(1H)-one] | 1720 nM | >10000 nM |  | 371 nM | 641.5 nM | 466 nM | 1002.5 nM | 830 nM | 667 nM |  |
| Cc1cn(C2CCN(C)C2=O)c2c1C(=O)N(c1cc(C)c3nnc(C)n3c1)C2c1ccc(Cl)cc1 (centres unmarked) [Example 126, 6-(4-chlorophenyl)-5-(3,8-dimethyl-[1,2,4]triazolo[4,3-a]pyridin-6-yl)-3-methyl-1-(1-methyl-2-oxopyrrolidin-3-yl)-5,6-dihydropyrrolo[3,4-b]pyrrol-4(1H)-one] | 628 nM | >10000 nM | 43 nM | 74.6 nM | 180 nM | 113 nM | 315.5 nM |  | 48 nM | 12900 nM |
| CNC(=O)Cn1cc(C)c2c1C(c1ccc(Cl)cc1)N(c1cc(C)c3nnc(C)n3c1)C2=O (centres unmarked) [Example 127, 2-(6-(4-chlorophenyl)-5-(3,8-dimethyl-[1,2,4]triazolo[4,3-a]pyridin-6-yl)-3-methyl-4-oxo-5,6-dihydropyrrolo[3,4-b]pyrrol-1(4H)-yl)-N-methylacetamide] | 2320 nM | >10000 nM | 85 nM | 412 nM | 640 nM | 824 nM | 1129 nM |  | 81 nM | 7500 nM |
| Cc1cn(CCN(C)C)c2c1C(=O)N(c1cc(C)c3nnc(C)n3c1)C2c1ccc(Cl)cc1 (centres unmarked) [Example 128, 6-(4-chlorophenyl)-5-(3,8-dimethyl-[1,2,4]triazolo[4,3-a]pyridin-6-yl)-1-(2-(dimethylamino)ethyl)-3-methyl-5,6-dihydropyrrolo[3,4-b]pyrrol-4(1H)-one] | 203 nM | >10000 nM | 45 nM | 39.5 nM | 62.9 nM | 37.7 nM | 105.1 nM |  | 46 nM | 27600 nM |
| Cc1cn(CC(=O)N(C)C)c2c1C(=O)N(c1cc(C)c3nnc(C)n3c1)C2c1ccc(Cl)cc1 (centres unmarked) [Example 129, 2-(6-(4-chlorophenyl)-5-(3,8-dimethyl-[1,2,4]triazolo[4,3-a]pyridin-6-yl)-3-methyl-4-oxo-5,6-dihydropyrrolo[3,4-b]pyrrol-1(4H)-yl)-N,N-dimethylacetamide] | 492 nM | >10000 nM | 54 nM | 96.3 nM | 143 nM | 188 nM | 439.5 nM |  | 58 nM | 8100 nM |
| Cc1cc(N2C(=O)c3c(C4CNC4)cn(C)c3C2c2ccc(Cl)cc2)nc2c1nnn2C (centres unmarked) [Example 130, 3-(azetidin-3-yl)-6-(4-chlorophenyl)-5-(3,7-dimethyl-3H-[1,2,3]triazolo[4,5-b]pyridin-5-yl)-1-methyl-5,6-dihydropyrrolo[3,4-b]pyrrol-4(1H)-one] | 76.3 nM | 3500 nM | 12 nM | < 3 nM | 6.21 nM | 12.9 nM | 31 nM |  | 13 nM | 12800 nM |
| Cc1cc(N2C(=O)c3ccn(C)c3C2c2ccc(Cl)cc2)nn2c(C)nnc12 (centres unmarked) [Example 131, 6-(4-chlorophenyl)-5-(3,8-dimethyl-[1,2,4]triazolo[4,3-b]pyridazin-6-yl)-1-methyl-5,6-dihydropyrrolo[3,4-b]pyrrol-4(1H)-one] | 67.1 nM | >10000 nM | 33 nM | 9.21 nM | 21.5 nM | 9.76 nM | 30.25 nM |  | 27 nM | > 37000 nM |
| CNC(=O)c1cn(C)c2c1C(=O)N(c1cc(C)c3nnc(C(F)F)n3c1)C2c1ccc(Cl)cc1 (centres unmarked) [Example 132, 6-(4-chlorophenyl)-5-(3-(difluoromethyl)-8-methyl-[1,2,4]triazolo[4,3-a]pyridin-6-yl)-N,1-dimethyl-4-oxo-1,4,5,6-tetrahydropyrrolo[3,4-b]pyrrole-3-carboxamide] | 58.6 nM | >10000 nM | 16 nM | 9.57 nM | 23.15 nM | 10.1 nM | 26 nM |  | 23 nM | 14100 nM |
| CC(=O)Nc1cn(C)c2c1C(=O)N(c1cc(C)c3nnc(C(F)F)n3c1)C2c1ccc(Cl)cc1 (centres unmarked) [Example 133, N-(6-(4-chlorophenyl)-5-(3-(difluoromethyl)-8-methyl-[1,2,4]triazolo[4,3-a]pyridin-6-yl)-1-methyl-4-oxo-1,4,5,6-tetrahydropyrrolo[3,4-b]pyrrol-3-yl)acetamide] | 92.7 nM | >10000 nM | 29 nM | 24.6 nM | 49.7 nM | 29.9 nM | 74.25 nM |  | 32 nM | 13900 nM |
| Cc1cc(N2C(=O)c3c(NC(=O)CN(C)C)cn(C)c3C2c2ccc(Cl)cc2)cn2c(C(F)F)nnc12 (centres unmarked) [Example 134, N-(6-(4-chlorophenyl)-5-(3-(difluoromethyl)-8-methyl-[1,2,4]triazolo[4,3-a]pyridin-6-yl)-1-methyl-4-oxo-1,4,5,6-tetrahydropyrrolo[3,4-b]pyrrol-3-yl)-2-(dimethylamino)acetamide] | 181 nM | >10000 nM | 22 nM | 31.5 nM | 65 nM | 34.2 nM | 82.4 nM |  | 29 nM | > 37000 nM |
